Experimental data as given in patent US7071187B2, “Naphthyridine derivatives” (Otsuka Pharmaceutical Factory, Inc., priority 2001, dated 2006).

Legend:
[1] = system: male S.D. rats injected with Substance P; assay: Pharmacological Test 3: analgesic effect (Randall-Sellitto pain threshold after Substance P injection); type: in vivo, rat; conditions: for analgesic effect (in words): conclusion from Table 15; for Recovery rate (%) of the pain threshold (highest recovery rate): oral, 5% gum arabic suspension 10 ml/kg, measurement point 60 minutes after Substance P injection
Protocol: Pharmacological Test 3 Test for Evaluating Analgesic Effect Using two groups (test group and control group) each consisting of 6-week-old male S.D. rats (7 rats in each group), the pain threshold of each rat's left hind paw was measured using an Analgesy-meter (product of Unicom) in accordance with the Randall-Sellitto method [Randall, L. O. and Sellitto, J. J., Arch. Int. Pharmacodyn., 111, 409–419 (1957)]. The value thus obtained was termed “pre-value”. One hour after the measurement of the pre-value, a 5% gum arabic suspension containing compound of the invention was orally administered to the rats of the test group in an amount of 10 ml/kg, whereas a 5% gum arabic suspension (not containing compound of the invention) was orally administered to the rats of the control group in an amount of 10 ml/kg. One hour after the oral administration, a physiological saline solution containing Substance P (25 ng/0.1 ml) was subcutaneously injected into the left hind paw of each rat. The pain threshold of each rat's left hind paw was measured in the same manner as above at predetermined time intervals after the Substance P injection. The measured value is termed the “post-value”. The recovery rate (%) of the pain threshold was calculated from the post-values and pre-values of the test group and control group, by means of the following formula: [formula]

[2] = system: excised ilea of Hartley male guinea pigs; assay: Pharmacological Test 2: adenosine enhancing effect on electrically stimulated contraction of excised ileum; conditions: guinea pig ileum, n=2
Protocol: Adenosine Enhancing Effect
The compounds obtained in Examples 1 and 34 were used as test compounds in the form of a dimethyl sulfoxide solution.
As experimental animals, Hartley male guinea pigs (purchased from CHARLES RIVER JAPAN, INC.) (that were in good general condition at least 6 days after the purchase) were used. The animals were housed in a cage under controlled conditions of temperature of 20 to 26° C. (actually measured value: 22.1 to 22.9° C.), humidity of 40–70% (actually measured value: 50.3–51.5%) and lighting of 12 hours/day (7:00–19:00). The animals had free access to food (solid diet, product name of Labo G Standard, product of Nosan Corporation) and tap water.
The following experiments were conducted using the excised ilea (n=2) of experimental animals (body weight at the time of testing: 316–388 g). The experimental animals were bled and slaughtered. […] The contraction reaction of samples was recorded on an ink-writing recorder (GRAPHTEC, SR-6211, SR-6221) through an isotonic transducer (product of NIHON KOHDEN CORPORATION, TD-112S). […]
That is, the nutrient solution was exchanged, electronic stimulation was applied to the samples 15 minutes after exchange of the nutrient solution, and, when contraction stabilized, adenosine was cumulatively added from 10^−6 M to 10^−5 M. The adenosine dose-response curve was then obtained, and the ED50 value was calculated. […]

[3] = system: streptozotocin (STZ) treated male S.D. rats; assay: Pharmacological Test 1: therapeutic effect on diabetic neuropathy (Randall-Selitto pain threshold in STZ rats); type: in vivo, rat; conditions: 30 mg/kg orally once a day, three hours after administration, left hind paw
Protocol: Pharmacological Test 1 Therapeutic Effect on Diabetic Neuropathy A model group was obtained by intravenously administering 50 mg/kg streptozotocin (STZ) dissolved in 0.01 M citrate buffer solution to 8-week-old male S.D. rats. After administration, five rats were housed per cage and kept therein. Three weeks after administration of STZ, the pain threshold of each rat's left hind paw to pressure stimulation was measured by Randall-Selitto Test [Randall, L. O. and Selitto, J. J. Arch. Int. Pharmacodyn., 111, 409–419 (1957)]. The value thus obtained was termed “pre-value”. […] A 5% gum arabic solution containing the test compound was orally administered as specimen to experimental animals in one of the above three groups (test group) in such a manner that each dosage of the test compound was 30 mg/kg and the amount of administered solution was 10 ml/kg, once a day for 21 continuous days. […] On the 14th and 21st days, the pain threshold of the left hind paw of the experiment animals was measured three hours after administration. The recovery rate (%) of the pain threshold was calculated by means of the following formula: Recovery rate (%)=[(T−C)/(N−C)]×100 (wherein T is the test group average value, C is the control group average value and N is the non-treated group average value.)

| Structure (SMILES) | melting point | other results |
| --- | --- | --- |
| COc1cc(OCC[S+](C)c2c([O-])c3cccnc3n(C)c2=O)cc(OC)c1OC (centres unmarked) [Example 36, 1-methyl-3-[methyl-2-(3,4,5-trimethoxyphenoxy)ethylsulfonium]-1,8-naphthyridine-2(1H)-one-4-olate] |  | analgesic effect (in words) [1]: excellent analgesic effect; Recovery rate (%) of the pain threshold (highest recovery rate) [1]: 111% |
| COc1cc(COCC[S+](C)c2c([O-])c3cccnc3n(Cc3ccccc3)c2=O)cc(OC)c1O (centres unmarked) [Example 10] | 121 to 123 °C |  |
| C[S+](CCCOc1ccc(Cl)cc1)c1c([O-])c2cccnc2n(Cc2ccccc2)c1=O (centres unmarked) [Example 3] | 145 to 147 °C |  |
| COc1cc(COCC[S+](C)c2c([O-])c3cccnc3n(Cc3ccccc3)c2=O)cc2c1OCO2 (centres unmarked) [Example 8] | 84 to 87 °C |  |
| Cc1cccc(C)c1COCC[S+](C)c1c([O-])c2cccnc2n(Cc2ccccc2)c1=O (centres unmarked) [Example 4] | 161 to 163 °C |  |
| COc1cc(OCCC[S+](C)c2c([O-])c3cccnc3n(Cc3ccccc3)c2=O)cc(OC)c1OC (centres unmarked) [Example 1, 1-benzyl-3-[methyl-3-(3,4,5-trimethoxyphenoxy)propylsulfonium]-1,8-naphthyridine-2(1H)-one-4-olate] | 147 to 149 °C | Adenosine enhancing effect (ED50(−)/ED50(+)) ([2]; test compound concentration 10^−6 M): 11.11; analgesic effect (in words) [1]: excellent analgesic effect; Recovery rate (%) of the pain threshold (highest recovery rate) [1]: 46%; Recovery rate (%) of the pain threshold, 14th day ([3]; 14th day): 46.2%; Recovery rate (%) of the pain threshold, 21st day ([3]; 21st day): 56.7% |
| C[S+](CCOCc1ccccc1)c1c([O-])c2cccnc2n(Cc2ccccc2)c1=O (centres unmarked) [Example 2] | 130 to 132 °C |  |
| COc1cc(Cn2c(=O)c([S+](C)CCOc3cc(OC)c(OC)c(OC)c3)c([O-])c3cccnc32)cc(OC)c1OC (centres unmarked) [Example 15, 1-(3,4,5-trimethoxybenzyl)-3-[methyl-2-(3,4,5-trimethoxyphenoxy)ethylsulfonium]-1,8-naphthyridine-2(1H)-one-4-olate] |  | analgesic effect (in words) [1]: excellent analgesic effect; Recovery rate (%) of the pain threshold (highest recovery rate) [1]: 39% |
| CC[S+](CCCOc1cc(OC)c(OC)c(OC)c1)c1c([O-])c2cccnc2n(Cc2ccccc2)c1=O (centres unmarked) [Example 34, 1-benzyl-3-[ethyl-3-(3,4,5-trimethoxyphenoxy)propylsulfonium]-1,8-naphthyridine-2(1H)-one-4-olate] |  | Adenosine enhancing effect (ED50(−)/ED50(+)) ([2]; test compound concentration 10^−5 M): 14.00 |
| COc1cc(COCC[S+](C)c2c([O-])c3cccnc3n(Cc3ccccc3)c2=O)cc(O)c1OC (centres unmarked) [Example 9] | 132 to 134 °C |  |
| C[S+](CCOCc1cc(C(F)(F)F)cc(C(F)(F)F)c1)c1c([O-])c2cccnc2n(Cc2ccccc2)c1=O (centres unmarked) [Example 6] | 157 to 159 °C |  |
| C[S+](CCOCc1ccc2c(c1)OCO2)c1c([O-])c2cccnc2n(Cc2ccccc2)c1=O (centres unmarked) [Example 7] | 124 to 126 °C |  |
| Cc1cc(C)c(COCC[S+](C)c2c([O-])c3cccnc3n(Cc3ccccc3)c2=O)c(C)c1 (centres unmarked) [Example 5] | 165 to 167 °C |  |
